Test results as given in patent US20230293519A1, “INTEGRIN INHIBITORS AND USES THEREOF IN COMBINATION WITH OTHER AGENTS” (Pliant Therapeutics, Inc., priority 2021, published 2023).
“Also recorded” adds a separate entry of the source.

Key:
αvβ6 = αvβ6 (Homo sapiens (Human), UniProt P06756+P18564); experiment: [18F]FP-R01-MG-F2 PET/CT target engagement in participants with IPF; assay type: in vivo
Experimental: The aim of this Example is to assess target engagement of the disclosed compounds to αvβ6 in human participants with IPF using [^18F]FP-R01-MG-F2 PET/computerized tomography (CT) imaging.
This Example was conducted as an open-label, single-dose (60 mg, 120 mg, 240 mg or 320 mg) clinical trial evaluating αvβ6 receptor occupancy in the lungs, safety, and pharmacokinetics of Compound #5 in subjects with IPF. To date, 4 participants have completed the study. Each of these 4 participants was undergoing a pre-existing course of therapy using one of the SoC (Standard of Care) compounds, nintedanib. These participants continued their pre-existing nintedanib therapy throughout this study. Knottin tracer uptake kinetics were compared pre- and post-dose of the disclosed compound, as measured by standardized uptake values (SUVs) and parameters estimated from kinetic modeling in regions-of-interest on dynamic [^18F]FP-R01-MG-F2 PET/CT scans. […] Receptor occupancy was estimated from the output of the two-compartment model (VT, the […]) using standard equations and fitting algorithms, and corrections for VND (non-displaceable tracer binding). For example, in FIG. 10, the data points, shown as circles, are modeled by the following formula: […]
Five subjects with IPF were enrolled: Subject A received a single dose of 60 mg of the disclosed compound followed by a post-dose scan. Subject B received two doses of the disclosed compound separated by two weeks, 120 mg and 240 mg, each followed by a post-dose scan. Subject C received two doses of the disclosed compound separated by two weeks, 240 mg and 320 mg, each followed by a post-dose scan. Subject D received a single dose of 320 mg of the disclosed compound followed by a post-dose scan.

[1] = tested on: patients with idiopathic pulmonary fibrosis (IPF); experiment: Phase 2a trial in IPF: safety and tolerability
From the text: Approximately 80% of the enrolled patients were on standard of care and were equally distributed between nintedanib and pirfenidone.

[2] = tested on: fibrosis-related gene expression in explanted human lung tissue from patients with idiopathic pulmonary fibrosis; experiment: nCounter Fibrosis Panel gene expression in precision cut lung slices from IPF explants; assay type: cell-based; conditions: IPF PCLS, 7 days, vs DMSO
From the text: Fibrosis-related gene expression in explanted human lung tissue from patients with idiopathic pulmonary fibrosis was examined in order to determine what impact combining Compound 5 treatment with standard-of-care drugs nintedanib or pirfenidone, has on the expression of such genes.
Samples used for this analysis are a subset (n = 4 of 7) of the lungs previously reported on in Decaris et al., Respir Res (2021) 22:265 (FIGS. 6 A and B). Briefly, tissue samples from patients with IPF were acquired at the time of lung transplantation. Precision cut lung slices were generated from the explants and cultured for 7 days in the presence of inhibitors (Compound 5, nintedanib, pirfenidone) at clinically relevant concentrations or vehicle (DMSO). Treated slices were lysed in mRNA-compatible buffer for gene expression analysis. For this study, the lysate from n = 6 slices per treatment per lung were pooled for analysis using the nCounter Fibrosis Panel (Nanostring) on the nCounter Max analyzer (Nanostring). This commercially available panel of 770 genes includes genes related to initial tissue damage response, chronic inflammation, proliferation of pro-fibrotic cells, and tissue modification leading to fibrotic disease. Technical quality control and normalization of raw Nanostring mRNA count data was performed using an R framework developed by Bhattacharya et al. (Bhattacharya A. et al., Brief Bioinform. 2021 May 20;22(3):bbaa163). The R packages limma (see URL www.bioconductor.org/packages/release/bioc/html/limma.html) and voom (Law, C.W. et al., Genome Biol. 2014 Feb 3;15(2):R29) were used to detect differentially expressed genes. Benjamini-Hochberg False Discovery Rate (FDR = 5%) was used to adjust p-values for multiple comparisons.

αvβ6, sequence (P06756 31-889): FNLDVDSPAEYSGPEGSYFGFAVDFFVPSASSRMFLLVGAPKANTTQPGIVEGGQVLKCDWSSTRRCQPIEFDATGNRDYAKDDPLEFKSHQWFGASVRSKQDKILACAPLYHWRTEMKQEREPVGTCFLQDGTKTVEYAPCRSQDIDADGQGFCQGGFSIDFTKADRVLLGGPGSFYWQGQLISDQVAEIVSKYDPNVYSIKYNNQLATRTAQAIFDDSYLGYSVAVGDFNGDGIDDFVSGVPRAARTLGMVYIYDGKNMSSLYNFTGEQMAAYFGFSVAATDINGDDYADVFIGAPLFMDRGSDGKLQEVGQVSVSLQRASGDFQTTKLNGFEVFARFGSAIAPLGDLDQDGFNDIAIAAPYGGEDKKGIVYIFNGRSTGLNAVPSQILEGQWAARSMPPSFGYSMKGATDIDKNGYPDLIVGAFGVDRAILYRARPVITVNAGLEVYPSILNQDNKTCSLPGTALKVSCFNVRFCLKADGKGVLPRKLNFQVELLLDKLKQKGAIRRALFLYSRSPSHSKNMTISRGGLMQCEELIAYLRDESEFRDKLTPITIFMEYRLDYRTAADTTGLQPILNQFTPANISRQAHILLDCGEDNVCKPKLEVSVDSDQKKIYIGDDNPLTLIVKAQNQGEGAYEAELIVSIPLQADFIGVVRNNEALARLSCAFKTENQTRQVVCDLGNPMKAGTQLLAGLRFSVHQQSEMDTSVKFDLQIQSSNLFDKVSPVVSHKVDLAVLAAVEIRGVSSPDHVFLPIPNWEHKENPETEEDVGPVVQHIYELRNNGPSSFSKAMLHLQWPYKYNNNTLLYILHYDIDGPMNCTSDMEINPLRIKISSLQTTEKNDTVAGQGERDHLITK
αvβ6, sequence (P06756 890-1048 partner): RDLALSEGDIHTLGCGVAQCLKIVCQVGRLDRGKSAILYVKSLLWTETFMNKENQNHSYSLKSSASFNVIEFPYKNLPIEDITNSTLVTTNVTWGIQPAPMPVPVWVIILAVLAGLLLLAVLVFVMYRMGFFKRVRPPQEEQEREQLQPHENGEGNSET
αvβ6, sequence (P18564 22-788): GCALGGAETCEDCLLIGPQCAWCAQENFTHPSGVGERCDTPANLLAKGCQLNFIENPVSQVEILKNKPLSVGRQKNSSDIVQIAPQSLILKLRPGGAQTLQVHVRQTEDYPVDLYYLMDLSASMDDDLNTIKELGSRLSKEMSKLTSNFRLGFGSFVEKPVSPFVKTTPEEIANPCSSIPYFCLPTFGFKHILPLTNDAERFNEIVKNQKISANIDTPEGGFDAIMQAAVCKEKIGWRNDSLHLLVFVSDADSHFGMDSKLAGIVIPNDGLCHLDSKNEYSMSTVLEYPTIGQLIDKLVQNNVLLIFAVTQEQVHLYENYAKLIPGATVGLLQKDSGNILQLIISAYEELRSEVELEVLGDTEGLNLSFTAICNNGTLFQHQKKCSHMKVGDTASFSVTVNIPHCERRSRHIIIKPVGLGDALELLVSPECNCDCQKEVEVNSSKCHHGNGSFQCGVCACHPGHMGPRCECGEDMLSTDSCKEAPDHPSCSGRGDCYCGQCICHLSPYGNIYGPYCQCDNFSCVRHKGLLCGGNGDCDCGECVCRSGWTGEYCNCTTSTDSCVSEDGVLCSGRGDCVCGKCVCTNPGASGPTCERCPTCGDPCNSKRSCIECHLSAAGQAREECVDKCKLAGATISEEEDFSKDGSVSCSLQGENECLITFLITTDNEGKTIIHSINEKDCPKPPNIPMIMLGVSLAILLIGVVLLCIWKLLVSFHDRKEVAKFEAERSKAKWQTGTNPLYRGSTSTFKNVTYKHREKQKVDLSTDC

Compound: COCCN(CCCCc1ccc2c(n1)NCCC2)CC[C@H](Nc1ncnc2ccccc12)C(=O)O [Compound 5, (S)-4-((2-methoxyethyl)(4-(5,6,7,8-tetrahydro-1,8-naphthyridin-2-yl)butyl)amino)-2-(quinazolin-4-ylamino)butanoic acid]
- decrease in volume of distribution of the knottin radiotracer in the lungs (αvβ6; 60 mg dose): approximately 50%
- decrease in volume of distribution of the knottin radiotracer in the lungs (αvβ6; 240 and 320 mg doses): greater than 95%
- %DeltaVt (αvβ6; Subject A00, 60 mg single dose): 52.23%
- Vs (Vt corrected for non-displaceable binding, VND=0.66) (αvβ6; Subject A00, 60 mg single dose): 1.18
- Vt (post-dose) (αvβ6; Subject A00, 60 mg single dose): 1.84
- %DeltaVt (αvβ6; Subject B120, 120 mg): 58.76%
- Vs (Vt corrected for non-displaceable binding, VND=0.66) (αvβ6; Subject B120, 120 mg): 0.99
- Vt (post-dose) (αvβ6; Subject B120, 120 mg): 1.65
- %DeltaVt (αvβ6; Subject B240, 240 mg): 97.56%
- Vs (Vt corrected for non-displaceable binding, VND=0.66) (αvβ6; Subject B240, 240 mg): 0.06
- Vt (post-dose) (αvβ6; Subject B240, 240 mg): 0.72
- %DeltaVt (αvβ6; Subject C240, 240 mg): 70.91%
- Vs (Vt corrected for non-displaceable binding, VND=0.66) (αvβ6; Subject C240, 240 mg): 0.32
- Vt (post-dose) (αvβ6; Subject C240, 240 mg): 0.98
- %DeltaVt (αvβ6; Subject C320, 320 mg): 82.73%
- Vs (Vt corrected for non-displaceable binding, VND=0.66) (αvβ6; Subject C320, 320 mg): 0.19
- Vt (post-dose) (αvβ6; Subject C320, 320 mg): 0.85
- %DeltaVt (αvβ6; Subject D320, 320 mg): 93.57%
- Vs (Vt corrected for non-displaceable binding, VND=0.66) (αvβ6; Subject D320, 320 mg): 0.09
- Vt (post-dose) (αvβ6; Subject D320, 320 mg): 0.75
- αvβ6 receptor occupancy (αvβ6; lungs of IPF participants): about 100%
- concentration at which the exposure response saturates (αvβ6; measured drug exposure at 4 hours): about 100 nM
- discontinuations due to adverse events ([1]; 12 weeks): no discontinuations due to adverse events
- severity of most treatment emergent adverse events (TEAE) ([1]; 12 weeks): mild or moderate
- treatment related deaths or drug related serious adverse events (SAE) ([1]; 12 weeks): No treatment related deaths or drug related serious adverse events; also recorded: No treatment related SAEs or deaths
- patients completing 12 weeks of treatment (65 of 67) ([1]; 40, 80, 160 mg once daily): 97%
- tolerability ([1]; 40, 80, 160 mg once daily, 12 weeks): safe and well tolerated
- serious adverse events ([1]; Compound 5 alone): did not result in serious adverse events
- % Reduction of APOC2 expression [2]: -1.20%
- % Reduction of CDH2 expression [2]: 23.87%
- % Reduction of COL1A1 expression [2]: 38.78%
- % Reduction of COL4A2 expression [2]: 17.74%
- % Reduction of COL5A3 expression [2]: 30.59%
- % Reduction of FAP expression [2]: 37.30%
- % Reduction of FCGR3A/B expression [2]: 28.54%
- % Reduction of ITGAS expression [2]: 26.20%
- % Reduction of ITGB3 expression [2]: -2.48%
- % Reduction of LOX expression [2]: 39.38%
- % Reduction of LOXL2 expression [2]: 15.32%
- % Reduction of NID1 expression [2]: 19.25%
- % Reduction of PDGFRB expression [2]: 37.29%
- % Reduction of POSTN expression [2]: 48.61%
- % Reduction of SERPINE1 expression [2]: 35.77%
- % Reduction of SERPINH1 expression [2]: 22.68%
- % Reduction of SPP1 expression [2]: -15.73%
- % Reduction of TGFB1 expression [2]: 1.68%
- % Reduction of THBS2 expression [2]: 31.47%
- logFC of ALDH7A1 expression [2]: 0.57
- logFC of APOA2 expression [2]: 0.6135
- logFC of CCL13 expression [2]: 0.9445
- logFC of CD19 expression [2]: 0.5301
- logFC of CIITA expression [2]: 0.5895
- logFC of COL1A2 expression [2]: -0.8062
- logFC of COL3A1 expression [2]: -0.7449
- logFC of COL5A1 expression [2]: -0.9282
- logFC of COL6A3 expression [2]: -0.8313
- logFC of COL10A1 expression [2]: -2.782
- logFC of CXCL2 expression [2]: 0.7069
- logFC of CXCR4 expression [2]: -0.7822
- logFC of FAP expression [2]: -0.6735
- logFC of FN1 expression [2]: -0.662
- logFC of FZD5 expression [2]: 0.4466
- logFC of GPC4 expression [2]: 0.486
- logFC of GREM1 expression [2]: -0.8269
- logFC of IFI6 expression [2]: 0.9391
- logFC of IFI35 expression [2]: 0.4412
- logFC of LOX expression [2]: -0.722
- logFC of LOXL1 expression [2]: -0.6279
- logFC of LTA expression [2]: 0.4994
- logFC of MARCO expression [2]: -0.9183
- logFC of MET expression [2]: 0.6707
- logFC of MMP8 expression [2]: -0.8754
- logFC of MMP11 expression [2]: -0.6749
- logFC of NOS1 expression [2]: 0.6684
- logFC of OAS1 expression [2]: 0.6104
- logFC of PDGFRB expression [2]: -0.6732
- logFC of PECAM1 expression [2]: -0.8251
- logFC of PLPP4 expression [2]: -0.6364
- logFC of POSTN expression [2]: -0.9604
- logFC of PTGER4 expression [2]: 0.439
- logFC of SERPINE1 expression [2]: -0.6387
- logFC of SMAD3 expression [2]: 0.4528
- logFC of TIMP1 expression [2]: -0.6101
- logFC of TNF expression [2]: 0.4803
- logFC of TTN expression [2]: 0.5832
- logFC of WWC1 expression [2]: 0.5885
- logFC of XAF1 expression [2]: 0.4529
